Measurements from patent US10429384B2, “Compositions, kits, and methods for identification, assessment, prevention, and therapy of metabolic disorders” (Dana-Farber Cancer Institute, Inc., priority 2010, dated 2019).
“Also recorded” adds a separate entry of the source.

Legend:
[1] = target: T1, wild type PPAR gamma (cdk5-mediated phosphorylation) (Mus musculus, UniProt P37238); assay: TNF-α-induced phosphorylation of PPAR gamma in 3T3-L1 adipocytes expressing wild type PPAR gamma; type: cell-based; conditions: combined with rosiglitazone, FIG. 5A
T1 construct: expressed in transfected cells; host or cells: 3T3-L1 adipocytes
T1 sequence (P37238 1-505): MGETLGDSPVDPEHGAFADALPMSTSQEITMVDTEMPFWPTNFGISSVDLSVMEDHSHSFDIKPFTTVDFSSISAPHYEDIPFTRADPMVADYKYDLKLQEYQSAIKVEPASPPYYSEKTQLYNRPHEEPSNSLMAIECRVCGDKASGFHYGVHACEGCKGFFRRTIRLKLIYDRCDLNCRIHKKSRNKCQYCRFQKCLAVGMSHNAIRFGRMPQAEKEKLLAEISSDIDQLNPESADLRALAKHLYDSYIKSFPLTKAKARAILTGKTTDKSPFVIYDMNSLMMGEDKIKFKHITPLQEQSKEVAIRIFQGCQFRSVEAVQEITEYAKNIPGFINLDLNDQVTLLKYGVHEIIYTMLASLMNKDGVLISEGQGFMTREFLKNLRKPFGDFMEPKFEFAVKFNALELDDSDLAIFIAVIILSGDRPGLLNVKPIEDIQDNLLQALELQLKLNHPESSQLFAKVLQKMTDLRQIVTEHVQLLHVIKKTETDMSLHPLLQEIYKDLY
Protocol: HEK-293 cells expressing CDK5 or PPAR gamma were collected after transfection. Total cell lysates were incubated with FLAG M2 agarose (Sigma) at 4° C. Immunoprecipitates or total cell lysates were analyzed with anti-CDK substrate, FLAG or HA (Roche) antibodies. Differentiated 3T3-L1 adipocytes were treated with TNF-α (50 ng/ml), IL-6 (50 ng/ml), IL-10 (50 ng/ml) or FFAs (400 μM palmitic acid and oleic acid mixtures) for the indicated times, and cell lysates were analyzed with phospho-specific or PPAR gamma antibodies. 3T3-L1 adipocytes were pre-treated with various PPAR gamma ligands, and incubated with TNF-α. For tissue lysates, WAT from mice was homogenized in RIPA buffer (50 mM Tris pH7.5, 150 mM NaCl, 1% NP-40, 0.5% sodium deoxycholate, 0.1% SDS with protease and phosphatase inhibitors). […] Total tissue lysates were analyzed with anti-PPAR gamma, phospho-CDK5 (Y15), CDK5 and p35 antibodies (Santa Cruz).

high-fat fed mice = assay: Glucose tolerance, fasting insulin and body weight in high-fat fed mice; conditions: 10 mg/kg for 7 days
Protocol: 4 to 5-week old male C57BL/6J mice were obtained from the Jackson Laboratory. Mice were fed a regular diet (10% kcal fat, D12450B, Research Diets Inc.) or a high fat diet (60% kcal fat, D12492, Research Diets Inc.) as indicated time periods. […] Glucose was measured in tail vain blood at intervals after glucose injection using a Truetrack glucometer. Serum insulin concentrations were determined by ELISA (Crystal Chem).

mice [2] = conditions: Acton et al. 2005; cited from earlier work
mice [3] = assay: Whole body oxygen consumption (CLAMS) in treated mice; type: in vivo; conditions: 10 mg/kg for 10 days
[4] = target: T2, PPAR gamma (TNF-α-mediated phosphorylation) (Mus musculus, UniProt P37238); assay: TNF-α-induced phosphorylation of PPAR gamma in HEK-293 cells; type: cell-based; conditions: 30 nM; FIG. 5E
T2 construct: expressed in transfected cells; host or cells: HEK-293
T2 sequence (P37238 1-505): T1 sequence (P37238 1-505)
Protocol: HEK-293 cells expressing CDK5 or PPAR gamma were collected after transfection. Total cell lysates were incubated with FLAG M2 agarose (Sigma) at 4° C. Immunoprecipitates or total cell lysates were analyzed with anti-CDK substrate, FLAG or HA (Roche) antibodies. Differentiated 3T3-L1 adipocytes were treated with TNF-α (50 ng/ml), IL-6 (50 ng/ml), IL-10 (50 ng/ml) or FFAs (400 μM palmitic acid and oleic acid mixtures) for the indicated times, and cell lysates were analyzed with phospho-specific or PPAR gamma antibodies. 3T3-L1 adipocytes were pre-treated with various PPAR gamma ligands, and incubated with TNF-α. […] Phosphorylation of PPAR gamma on Ser112 or Ser273 was detected by phospho-specific antibodies (Ser112, Millipore, MAB3632).

adipogenesis = conditions: cited from earlier work
[5] = target: T3, cdk5-mediated phosphorylation of PPAR gamma (serine 273) (Mus musculus, UniProt P37238); assay: In vitro CDK5 kinase assay with cdk5/p35 and PPAR gamma as substrate; type: biochemical, murine; conditions: FIG. 5B, FIG. 6
T3 construct: FLAG (N); made in house
T3 sequence (P37238 1-505): T1 sequence (P37238 1-505)
Protocol: Kinase assays were performed using an active cdk5/p35 protein and recombinant PPAR gamma protein as a substrate in kinase buffer in the presence of ATP. The reaction was stopped by adding sample buffer. Samples were then subjected to SDS-PAGE, and detected by CDK substrate antibody. In particular, active cdk5/p35, cdk1/cdc2, cdk2/cyclin A, cdk2/cyclin E or cdk4/cyclin D1 kinases were purchased from Millipore or Cell Signaling Technology. In vitro CDK kinase assay was performed according to the manufacturer's instructions (Cell Signaling Technology). […] Positive control for assay, purified histone H1 (Millipore) or Rb (Cell Signaling Technology) were used. Several PPAR gamma ligands were pre-incubated with substrates for 30 min, and the assay was performed. Phosphorylation of substrates after SDS-PAGE was analyzed with anti-CDK substrate antibody (Cell Signaling Technology).

[6] = target: T4, cdk5-mediated phosphorylation of PPAR gamma in adipose tissue (Mus musculus, UniProt P37238); assay: Phosphorylation of PPAR gamma in adipose tissue (WAT) of treated high-fat fed mice; type: in vivo; conditions: 10 mg/kg for 7 days, FIG. 9D
T4 construct: For tissue lysates, WAT from mice was homogenized in RIPA buffer; from tissue; host or cells: white adipose tissue of C57BL/6J mice on high fat diet
T4 sequence (P37238 1-505): T1 sequence (P37238 1-505)
Protocol: For tissue lysates, WAT from mice was homogenized in RIPA buffer (50 mM Tris pH7.5, 150 mM NaCl, 1% NP-40, 0.5% sodium deoxycholate, 0.1% SDS with protease and phosphatase inhibitors). […] Total tissue lysates were analyzed with anti-PPAR gamma, phospho-CDK5 (Y15), CDK5 and p35 antibodies (Santa Cruz). Phosphorylation of PPAR gamma on Ser112 or Ser273 was detected by phospho-specific antibodies (Ser112, Millipore, MAB3632).
4 to 5-week old male C57BL/6J mice were obtained from the Jackson Laboratory.

[7] = test system: PPAR gamma-null fibroblasts expressing WT PPAR gamma; assay: Microarray analysis of differentiated PPAR gamma-null fibroblasts expressing wild type PPAR gamma; type: cell-based, mouse; conditions: 1 μM, 24 hours; FIG. 5F
Description: To create refined gene sets regulated by cdk5 phosphorylation of PPAR gamma, p-value as well as fold-change of gene expression in WT versus S273A mutant cells was first calculated, and—log p-value versus log2 fold-change was plotted.

[8] = target: T5, cdk5 (Rb protein as substrate) (Homo sapiens, UniProt Q00535); assay: In vitro CDK5 kinase assay with Rb as substrate; type: biochemical; conditions: selectivity control
T5 construct: purchased Millipore or Cell Signaling Technology
T5 sequence (Q00535 whole entry, species assumed): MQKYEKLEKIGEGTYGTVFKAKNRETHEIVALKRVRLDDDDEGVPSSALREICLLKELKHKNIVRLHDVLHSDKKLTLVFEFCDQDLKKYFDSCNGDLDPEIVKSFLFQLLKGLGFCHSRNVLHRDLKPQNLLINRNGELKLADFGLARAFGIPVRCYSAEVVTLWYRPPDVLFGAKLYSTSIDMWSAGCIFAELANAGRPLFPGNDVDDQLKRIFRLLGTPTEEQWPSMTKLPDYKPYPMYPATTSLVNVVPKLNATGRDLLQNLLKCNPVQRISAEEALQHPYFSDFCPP
T5 sequence (Q15078 whole entry partner, species assumed): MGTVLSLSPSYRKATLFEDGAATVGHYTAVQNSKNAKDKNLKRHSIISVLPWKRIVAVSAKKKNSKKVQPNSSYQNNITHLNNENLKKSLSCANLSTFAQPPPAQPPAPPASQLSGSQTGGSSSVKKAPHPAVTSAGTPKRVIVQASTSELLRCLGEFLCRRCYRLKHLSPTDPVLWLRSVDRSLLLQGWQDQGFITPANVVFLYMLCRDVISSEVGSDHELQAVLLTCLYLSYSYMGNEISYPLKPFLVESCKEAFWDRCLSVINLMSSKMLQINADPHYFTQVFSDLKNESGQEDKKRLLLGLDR
Protocol: Kinase assays were performed using an active cdk5/p35 protein and recombinant PPAR gamma protein as a substrate in kinase buffer in the presence of ATP. The reaction was stopped by adding sample buffer. Samples were then subjected to SDS-PAGE, and detected by CDK substrate antibody. In particular, active cdk5/p35, cdk1/cdc2, cdk2/cyclin A, cdk2/cyclin E or cdk4/cyclin D1 kinases were purchased from Millipore or Cell Signaling Technology. In vitro CDK kinase assay was performed according to the manufacturer's instructions (Cell Signaling Technology). Briefly, 1 μg of immuno-purified WT or S273A mutant of PPAR gamma were incubated with active CDK kinase in kinase assay buffer (25 mM Tris-HCl pH 7.5, 5 mM beta-glycerophosphate, 2 mM dithiothreitol (DTT), 0.1 mM Na3VO4, 10 mM MgCl2) containing 20 μM ATP for 15 min at 30° C. Positive control for assay, purified histone H1 (Millipore) or Rb (Cell Signaling Technology) were used. Several PPAR gamma ligands were pre-incubated with substrates for 30 min, and the assay was performed. Phosphorylation of substrates after SDS-PAGE was analyzed with anti-CDK substrate antibody (Cell Signaling Technology).

[9] = target: T6, PPAR gamma (PPAR transcriptional response element) (Mus musculus, UniProt P37238); assay: Reporter gene assay, PPAR-derived reporter gene in HEK-293 cells; type: cell-based
T6 construct: expressed in transfected cells; host or cells: HEK-293
T6 sequence (P37238 1-505): T1 sequence (P37238 1-505)
T6 sequence (P19793 1-462 partner): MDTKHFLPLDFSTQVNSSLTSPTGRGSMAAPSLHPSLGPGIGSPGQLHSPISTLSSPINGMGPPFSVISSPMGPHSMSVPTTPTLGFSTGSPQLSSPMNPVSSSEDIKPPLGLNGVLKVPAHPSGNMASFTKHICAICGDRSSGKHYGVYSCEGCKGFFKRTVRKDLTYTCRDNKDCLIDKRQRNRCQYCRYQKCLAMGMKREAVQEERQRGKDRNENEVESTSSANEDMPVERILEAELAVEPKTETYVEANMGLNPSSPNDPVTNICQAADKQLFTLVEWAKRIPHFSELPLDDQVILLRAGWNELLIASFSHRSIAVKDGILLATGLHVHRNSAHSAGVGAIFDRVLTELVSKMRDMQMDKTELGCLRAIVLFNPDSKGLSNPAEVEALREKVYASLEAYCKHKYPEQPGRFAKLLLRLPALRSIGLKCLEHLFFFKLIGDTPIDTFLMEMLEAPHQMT
Protocol: In some examples, HEK-293 cells were seeded in 12-well plates at 1.5×10^5 cells/well. HEK-293 cells were transfected with pDR-1 (3×, based on the UCP1 PPAR gamma recognition site)-luciferase reporter plasmid, PPAR gamma, RXRa and pRL-renillin using Lipofectamine 2000 (Invitrogen). […] The cells were harvested and reporter gene assays were carried out using the Dual-Luciferase kit (Promega). Luciferase activity was normalized to renillia activity.

O=C(Nc1ccccc1)c1cc([N+](=O)[O-])ccc1Cl [GW 9662]
effect of antagonist on rosiglitazone inhibition of PPAR gamma phosphorylation [1]: completely blocked this effect of rosiglitazone

CN(CCOc1ccc(CC2SC(=O)NC2=O)cc1)c1ccccn1 (stereo not drawn) [rosiglitazone]
body weight (high-fat fed mice): without inducing changes in body weight

COc1ccc(C(=O)n2c(C)c(Cc3cccc(O[C@@H](C)C(=O)O)c3)c3cc(OC(F)(F)F)ccc32)cc1 [MRL24]
anti-diabetic activity (mice [2]): excellent anti-diabetic activity in mice | whole body oxygen consumption (mice [3]): selectively increase whole body oxygen consumption in vivo | block of TNF-α-mediated phosphorylation of PPAR gamma [4]: blocked the TNF-α-mediated phosphorylation of PPAR gamma essentially completely | ability to promote adipogenesis (adipogenesis): virtually no ability to promote adipogenesis | blocking of cdk5-mediated phosphorylation of PPAR gamma [5]: very effective at blocking the cdk5-mediated phosphorylation of PPAR gamma | cdk5-mediated phosphorylation of PPAR gamma in adipose tissue [6]: reduced the cdk5-mediated phosphorylation of PPAR gamma in the adipose tissue of every mouse | fasting insulin levels (high-fat fed mice): reduced fasting insulin levels | glucose tolerance (high-fat fed mice): dramatically improved glucose tolerance | expression of gene cluster "c" (genes increased by the cdk5 site mutation) [7]: corresponded remarkably well to the gene set induced by the mutation in the cdk5 site of PPAR gamma | expression of gene group "a" (genes activated by cdk5 phosphorylation of PPAR gamma) [7]: suppressed | inhibition of cdk5 phosphorylation of Rb [8]: retained full ability to phosphorylate Rb | agonist activity on PPAR gamma at 30 nM ([9]; 30 nM, same cells as phosphorylation test): essentially undetectable agonist activity | agonist activity on a PPAR transcriptional response element ([9]; compared to rosiglitazone): very weak agonist activity; also recorded: only a small fraction of the agonist activity of rosiglitazone
